The experiment addresses T1, Human complement C1s enzyme (Homo sapiens, UniProt P09871).
T1 sequence (P09871 438-688 limits assumed): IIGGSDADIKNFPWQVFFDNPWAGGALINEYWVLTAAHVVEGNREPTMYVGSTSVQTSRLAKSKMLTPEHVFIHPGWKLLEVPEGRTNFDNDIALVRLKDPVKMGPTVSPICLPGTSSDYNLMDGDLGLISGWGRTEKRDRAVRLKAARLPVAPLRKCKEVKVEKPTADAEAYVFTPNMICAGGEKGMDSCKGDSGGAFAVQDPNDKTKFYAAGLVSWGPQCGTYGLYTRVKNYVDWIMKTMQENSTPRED
T1 sequence (P09871 16-437 partner limits assumed): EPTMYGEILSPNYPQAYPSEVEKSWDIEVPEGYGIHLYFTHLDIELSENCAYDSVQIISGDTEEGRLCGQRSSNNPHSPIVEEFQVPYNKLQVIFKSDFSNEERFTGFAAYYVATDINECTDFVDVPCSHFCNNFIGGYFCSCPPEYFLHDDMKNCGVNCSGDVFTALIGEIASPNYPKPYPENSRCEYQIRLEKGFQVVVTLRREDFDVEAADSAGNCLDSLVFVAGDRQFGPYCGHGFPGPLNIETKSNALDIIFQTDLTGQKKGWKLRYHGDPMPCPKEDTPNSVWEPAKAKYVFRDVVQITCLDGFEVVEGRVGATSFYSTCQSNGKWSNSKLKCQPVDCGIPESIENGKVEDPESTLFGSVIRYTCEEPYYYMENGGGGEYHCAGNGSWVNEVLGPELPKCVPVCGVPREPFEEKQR
Nature of the experiment: Human C1s enzyme assay. Format: biochemical. The following applies: human complement C1s enzyme 1.16 nM, substrate Z-L-Lys-SBzl 100 μM, 5 min preincubation; read-out: IC50 (Stars), C1s Inhibiting Activity. The method in brief:
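Serum-purified human C1s (1.16 nM final) preincubated 5 min at room temperature with compound in 50 mM Tris, 1 M NaCl, pH 7.5. Z-L-Lys-SBzl and DTNB added at 100 μM each; A405 followed every 30 s for 30 min, and IC50 obtained by nonlinear regression of reaction rates.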

pIC50: −log10 of the molar value. Where only a bound is given, the exact number is not on record here.

Consider `C[C@@H](NC(=O)C1CSCN1C(=O)CNC(=O)c1ccc2c(c1)Oc1ccccc1S2)c1cc2cnccc2[nH]1` (stereo partly drawn) [Compound 289, N-((R)-1-(1H-pyrrolo[3,2-c]pyridin-2-yl)ethyl)-3-((phenoxathiine-3-carbonyl)glycyl)thiazolidine-4-carboxamide], for which the pIC50 was over 7.00.
The same measure for `C[C@@]12C[C@@H]1N(C(=O)CNC(=O)c1ccc3c(c1)Oc1ccccc1S3)[C@H](C(=O)NCc1ccc3c(c1)B(O)OC3)C2` [Compound 290, (1S,3S,5S)-N-((1-hydroxy-1,3-dihydrobenzo[c][1,2]oxaborol-6-yl)methyl)-5-methyl-2-((phenoxathiine-3-carbonyl)glycyl)-2-azabicyclo[3.1.0]hexane-3-carboxamide]: under 6.00; for `C[C@@]12C[C@@H]1N(C(=O)CNC(=O)c1ccc3c(c1)Oc1ccccc1S3)[C@H](C(=O)NCc1cc3cc(B(O)O)ccc3[nH]1)C2` [Compound 291, (2-(((1S,3S,5S)-5-methyl-2-((phenoxathiine-3-carbonyl)glycyl)-2-azabicyclo[3.1.0]hexane-3-carboxamido)methyl)-1H-indol-5-yl)boronic acid]: under 6.00.
The same measure for `Cc1ccc(Oc2cccc(C(=O)NCC(=O)N3C[C@H](OC(F)F)C[C@H]3C(=O)NCc3cc4cnccc4[nH]3)c2)c(Cl)c1` [Compound 292, (2S,4R)-N-((1H-pyrrolo[3,2-c]pyridin-2-yl)methyl)-1-((3-(2-chloro-4-methylphenoxy)benzoyl)glycyl)-4-(difluoromethoxy)pyrrolidine-2-carboxamide]: over 7.00; for `CCc1ccc(Oc2cccc(C(=O)NCC(=O)N3C[C@H](OC(F)F)C[C@H]3C(=O)NCc3cc4cnccc4[nH]3)c2)cc1` [Compound 293, (2S,4R)-N-((1H-pyrrolo[3,2-c]pyridin-2-yl)methyl)-4-(difluoromethoxy)-1-((3-(4-ethylphenoxy)benzoyl)glycyl) pyrrolidine-2-carboxamide]: over 7.00.
The same measure for `O=C(NCC(=O)N1C[C@H](OC(F)F)C[C@H]1C(=O)NCc1cc2cnccc2[nH]1)c1cccc(Oc2ccc(C3CC3)cc2)c1` [Compound 294, (2S,4R)-N-((1H-pyrrolo[3,2-c]pyridin-2-yl)methyl)-1-((3-(4-cyclopropylphenoxy)benzoyl)glycyl)-4-(difluoromethoxy)pyrrolidine-2-carboxamide]: over 7.00.
As for `O=C(NCC(=O)N1C[C@H](OC(F)F)C[C@H]1C(=O)NCc1cc2cnccc2[nH]1)c1cccc(Oc2cc(F)ccc2F)c1` [Compound 295, (2S,4R)-N-((1H-pyrrolo[3,2-c]pyridin-2-yl)methyl)-4-(difluoromethoxy)-1-((3-(2,5-difluorophenoxy)benzoyl)glycyl) pyrrolidine-2-carboxamide], the pIC50 was over 7.00.
As for `C[C@@]12C[C@@H]1N(C(=O)CNC(=O)CCCOc1ccccc1)[C@H](C(=O)NC1CN(C(=O)[C@H]3CNCCN3)C1)C2` [Compound 296, (1S,3S,5S)-5-methyl-2-((4-phenoxybutanoyl)glycyl)-N-(1-((R)-piperazine-2-carbonyl)azetidin-3-yl)-2-azabicyclo[3.1.0]hexane-3-carboxamide], the pIC50 is under 6.00.
The same measure for `Cc1ccc(-c2ccc(C(=O)NCC(=O)N3CC4(C[C@H]3C(=O)NCc3cc5cnccc5[nH]3)OCCO4)cc2)s1` [Compound 297, (S)-N-((1H-pyrrolo[3,2-c]pyridin-2-yl)methyl)-7-((4-(5-methylthiophen-2-yl)benzoyl)glycyl)-1,4-dioxa-7-azaspiro[4.4]nonane-8-carboxamide]: over 7.00; for `Cc1ccc(Oc2cccc(C(=O)NCC(=O)N3C[C@H](OC(F)F)C[C@H]3C(=O)NCc3cc4cnccc4[nH]3)c2)c(C)c1` [Compound 298, (2S,4R)-N-((1H-pyrrolo[3,2-c]pyridin-2-yl)methyl)-4-(difluoromethoxy)-1-((3-(2,4-dimethylphenoxy)benzoyl)glycyl) pyrrolidine-2-carboxamide]: over 7.00.
As for `O=C(NCC(=O)N1C[C@H](OC(F)F)C[C@H]1C(=O)NCc1cc2cnccc2[nH]1)c1cccc(Oc2ccccc2F)c1` [Compound 299, (2S,4R)-N-((1H-pyrrolo[3,2-c]pyridin-2-yl)methyl)-4-(difluoromethoxy)-1-((3-(2-fluorophenoxy)benzoyl)glycyl) pyrrolidine-2-carboxamide], the pIC50 was over 7.00.
The same measure for `C[C@@H](NC(=O)[C@@H]1CC2(CN1C(=O)CNC(=O)c1ccc3oc4ccccc4c3c1)OCCO2)c1cc2cnccc2[nH]1` [Compound 300, (S)-N-((R)-1-(1H-pyrrolo[3,2-c]pyridin-2-yl)ethyl)-7-((dibenzo[b,d]furan-2-carbonyl)glycyl)-1,4-dioxa-7-azaspiro[4.4]nonane-8-carboxamide]: over 7.00; for `CC1(C)c2ccccc2-c2cc(C(=O)NCC(=O)N3C[C@H](OC(F)F)C[C@H]3C(=O)NCc3cc4cnccc4[nH]3)ccc21` [Compound 301, (2S,4R)-N-((1H-pyrrolo[3,2-c]pyridin-2-yl)methyl)-4-(difluoromethoxy)-1-((9,9-dimethyl-9H-fluorene-3-carbonyl)glycyl) pyrrolidine-2-carboxamide]: over 7.00.
On to `CC1c2ccccc2-c2cc(C(=O)NCC(=O)N3C[C@H](OC(F)F)C[C@H]3C(=O)NCc3cc4cnccc4[nH]3)ccc21` (stereo partly drawn) [Compound 302, (2S,4R)-N-((1H-pyrrolo[3,2-c]pyridin-2-yl)methyl)-4-(difluoromethoxy)-1-((9-methyl-9H-fluorene-3-carbonyl)glycyl) pyrrolidine-2-carboxamide], for which the pIC50 was over 7.00.
The same measure for `O=C(NCC(=O)N1C[C@H](OC(F)F)C[C@H]1C(=O)NCc1cc2cnccc2[nH]1)c1cccc(Oc2ccsc2)c1` [Compound 303, (2S,4R)-4-(difluoromethoxy)-N-(1H-pyrrolo[3,2-c]pyridin-2-ylmethyl)-1-[2-[[3-(3-thienyloxy)benzoyl]amino]acetyl]pyrrolidine-2-carboxamide]: over 7.00.
The same measure for `O=C(NCC(=O)N1C[C@H](OC(F)F)C[C@H]1C(=O)NCc1cc2cnccc2[nH]1)c1ccc(F)c(Oc2ccccc2)c1` [Compound 304, (2S,4R)-N-((1H-pyrrolo[3,2-c]pyridin-2-yl)methyl)-4-(difluoromethoxy)-1-((4-fluoro-3-phenoxybenzoyl)glycyl)pyrrolidine-2-carboxamide]: over 7.00.
For the molecule `Cc1ccc(Cc2cccc(C(=O)NCC(=O)N3C[C@H](OC(F)F)C[C@H]3C(=O)NCc3cc4cnccc4[nH]3)c2)c(F)c1` [Compound 305, (2S,4R)-N-((1H-pyrrolo[3,2-c]pyridin-2-yl)methyl)-4-(difluoromethoxy)-1-((3-(2-fluoro-4-methylbenzyl)benzoyl)glycyl)pyrrolidine-2-carboxamide], the pIC50 is over 7.00.
Regarding `Cc1cccc(-c2nc(C)cc(C(=O)NCC(=O)N3CC4(C[C@H]3C(=O)NCc3cc5cnccc5[nH]3)OCCO4)c2C)c1` [Compound 306, (S)-N-((1H-pyrrolo[3,2-c]pyridin-2-yl)methyl)-7-((3,6-dimethyl-2-(m-tolyl)isonicotinoyl)glycyl)-1,4-dioxa-7-azaspiro[4.4]nonane-8-carboxamide], the pIC50 is over 7.00.
The same measure for `Cc1ccc(Oc2cccc(C(=O)NCC(=O)N3CC4(C[C@H]3C(=O)NCc3cc5cnccc5[nH]3)OCCO4)c2)c(F)c1` [Compound 307, (S)-N-((1H-pyrrolo[3,2-c]pyridin-2-yl)methyl)-7-((3-(2-fluoro-4-methylphenoxy)benzoyl)glycyl)-1,4-dioxa-7-azaspiro[4.4]nonane-8-carboxamide]: over 7.00; for `Cc1cc(F)ccc1Oc1ccc(C(=O)NCC(=O)N2C[C@H](OC(F)F)C[C@H]2C(=O)NCc2cc3cnccc3[nH]2)cc1` [Compound 308, (2S,4R)-N-((1H-pyrrolo[3,2-c]pyridin-2-yl)methyl)-4-(difluoromethoxy)-1-((4-(4-fluoro-2-methylphenoxy)benzoyl)glycyl)pyrrolidine-2-carboxamide]: over 7.00; for `Cc1ccc(Oc2cccc(C(=O)NCC(=O)N3C[C@H](S(C)(=O)=O)C[C@H]3C(=O)NCc3cc4cnccc4[nH]3)c2)c(F)c1` [Compound 309, (2S,4R)-N-((1H-pyrrolo[3,2-c]pyridin-2-yl)methyl)-1-((3-(2-fluoro-4-methylphenoxy)benzoyl)glycyl)-4-(methylsulfonyl) pyrrolidine-2-carboxamide]: over 7.00.
The same measure for `Cc1ccc(Oc2cccc(C(=O)NCC(=O)N3CCC[C@H]3C(=O)NCc3cc4cnccc4[nH]3)c2)c(F)c1` [Compound 310, (S)-N-((1H-pyrrolo[3,2-c]pyridin-2-yl)methyl)-1-((3-(2-fluoro-4-methylphenoxy)benzoyl)glycyl)pyrrolidine-2-carboxamide]: over 7.00.

A word on the pIC50: it is −log10 of the IC50, conventionally taken in molar units.
